Measured values: patent US7025067B2, “Activated charcoal filter for effectively reducing p-benzosemiquinone from the mainstream cigarette smoke” (Council of Scientific and Industrial Research, priority 2001, dated 2006)
Read-outs that look alike come from different tables or passages of the source.

For p-benzosemiquinone [p-BSQ], the “half-life of p-BSQ” value (aqueous solution at pH 7.4) was “about 1.5 hours” and the “half-life of p-BSQ” value (solid state at the room temperature) was 48 h.
